Reference: the supplement of paper PMC10331698
± gives the standard deviation of the averaged measurements.

What was measured:
Assay in all cases: level (log10 ratio to DMSO vehicle control); higher = higher biomarker level / cell amount than vehicle control
[1] = compound: C=CC(=O)OCCC(F)(F)C(F)(F)C(F)(F)C(F)(F)C(F)(F)C(F)(F)C(F)(F)C(F)(F)F [8:2 Fluorotelomer acrylate]; conditions: in DMSO
Protocol: (§1)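 BioMAP Diversity Plus panel of 12 human primary cell co-culture systems (3C, 4H, LPS, SAg, BT, BF4T, BE3C, CASM3C, HDF3CGF, KF3CT, MyoF, Mphg). Compounds were added 1 h before stimulation and left for 24 h (MyoF 48 h; BT 72 h for soluble read-outs or 6 d for IgG). Biomarkers were read by ELISA, cytotoxicity by SRB, PBMC viability and proliferation by Alamar Blue. Each well value was divided by the mean of 8 DMSO control wells on the same plate and log10 transformed; duplicate blinded samples were tested at 4 concentrations.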

Perfluoropinacol = compound: OC(C(F)(F)F)(C(F)(F)F)C(O)(C(F)(F)F)C(F)(F)F [Perfluoropinacol]; conditions: in DMSO
Protocol: as §1

[2] = compound: O=P(O)(O)CCC(F)(F)C(F)(F)C(F)(F)C(F)(F)C(F)(F)C(F)(F)F [2-(Perfluorohexyl)ethylphosphonic acid]; conditions: in DMSO
Protocol: as §1

[3] = compound: C=CC(=O)OCC(F)(F)C(F)(F)C(F)(F)C(F)(F)C(F)(F)C(F)(F)C(F)(F)C(F)F [1H,1H,9H-Perfluorononyl acrylate]; conditions: in DMSO
Protocol: as §1

[4] = compound: O=C(CC(=O)C(F)(F)C(F)(F)C(F)(F)F)c1cccs1 [(Perfluorobutyryl)-2-thenoylmethane]; conditions: in DMSO
Protocol: as §1

[5] = compound: C=CC(=O)OCC(F)(F)C(F)(F)C(F)(F)C(F)(F)COC(=O)C=C [1H,1H,6H,6H-Perfluorohexane-1,6-diol diacrylate]; conditions: 6700 nM; in DMSO
Protocol: as §1

[6] = compound: FC(F)(I)C(F)(F)C(F)(F)C(F)(F)C(F)(F)C(F)(F)I [1,6-Diiodoperfluorohexane]; conditions: 6700 nM; in DMSO
Protocol: as §1

[7] = compound: O=C(O)C(F)(F)C(F)(F)C(F)(F)C(F)(F)C(F)(F)C(F)(F)C(F)(F)F [Ammonium perfluorooctanoate]; conditions: in DMSO
Protocol: as §1

Test System	level (log10) ([1]; 6700 nM)	level (log10) ([1]; 20000 nM)	level (log10) ([1]; 60000 nM)	level (log10) (Perfluoropinacol; 6700 nM)	level (log10) (Perfluoropinacol; 20000 nM)	level (log10) ([2]; 6700 nM)	level (log10) ([2]; 20000 nM)	level (log10) ([2]; 60000 nM)	level (log10) ([3]; 6700 nM)	level (log10) ([3]; 20000 nM)	level (log10) ([3]; 60000 nM)	level (log10) ([4]; 6700 nM)	level (log10) ([4]; 20000 nM)	level (log10) [5]	level (log10) [6]	level (log10) ([7]; 6700 nM)	level (log10) ([7]; 20000 nM)	level (log10) ([7]; 60000 nM)
HDF3CGF:Collagen III	0.032 ± 0.024	0.0315 ± 0.019	0.086 ± 0.014	0.0175 ± 0.0078	-0.0845 ± 0.0064	0.0135 ± 0.0078	0.0075 ± 0.018	-0.0305 ± 0.012	-0.096 ± 0.03	-0.102 ± 0.022	-0.124 ± 0.016	0.0155 ± 0.013	-0.452 ± 0.0042	0.105 ± 0.11	-0.358	0.0555 ± 0.032	-0.1 ± 0.048	-0.142 ± 0.0021
MyoF:TIMP-1	-0.0615 ± 0.011	-0.039 ± 0.025	-0.014 ± 0.0042	0.006 ± 0.016	-0.021 ± 0.0028	-0.035 ± 0.017	0.013 ± 0.0042	0.028 ± 0.023	-0.0205 ± 0.0078	-0.015 ± 0.0085	-0.008 ± 0.03	-0.042 ± 0.047	-0.0405 ± 0.015	-0.0015 ± 0.016	-0.047	0.004 ± 0.0085	0.012 ± 0.02	0.01 ± 0.033
CASM3C:HLA-DR	-0.0145 ± 0.0078	-0.0045 ± 0.0021	0.022 ± 0.013	-0.0885 ± 0.042	-0.207	0.0045 ± 0.015	0.015 ± 0.023	0.0345 ± 0.046	-0.0945 ± 0.044	-0.04 ± 0.071	0.021 ± 0.033	-0.018 ± 0.0042	-0.0365 ± 0.022	-0.008 ± 0.12	-0.006	0.0085 ± 0.012	-0.0055 ± 0.0021	0.0015 ± 0.023
lMphg:SRB	-0.003 ± 0.0085	-0.0105 ± 0.016	-0.004 ± 0.034	-0.0315 ± 0.0035	-0.144 ± 0.0064	-0.006 ± 0.0071	-0.0025 ± 0.013	0.009 ± 0.017	-0.003 ± 0.0014	-0.005 ± 0.0042	-0.005 ± 0.0057	-0.0175 ± 0.0064	-0.106 ± 0.029	-0.0075 ± 0.0035	-0.028	-0.0125 ± 0.0035	-0.004 ± 0.0028	0.0015 ± 0.005
3C:CCL2/MCP-1	0.005 ± 0.0042	-0.0155 ± 0.0064	0.019 ± 0.016	0.092 ± 0.013	0.0445 ± 0.012	0.001 ± 0.0042	-0.0035 ± 0.019	0.019 ± 0.054	0.0115 ± 0.053	-0.017 ± 0.016	0.008 ± 0.024	-0.0145 ± 0.013	-0.166 ± 0.0085	0.025 ± 0.044	0.01	-0.002 ± 0.0099	0.004 ± 0.025	0.0315 ± 0.035
CASM3C:CXCL9/MIG	0.026 ± 0.0071	-0.0055 ± 0.066	0.011 ± 0.065	-0.013 ± 0.02	-0.0335 ± 0.011	0.0095 ± 0.025	0.005 ± 0.033	0.0335 ± 0.066	-0.014 ± 0.0042	-0.0045 ± 0.028	-0.0035 ± 0.03	-0.0295 ± 0.018	-0.0945 ± 0.077	-0.154 ± 0.031	-0.018	-0.001 ± 0.016	0.017 ± 0.017	0.0225 ± 0.028
HDF3CGF:Collagen I	-0.025 ± 0.0028	-0.008 ± 0.0071	0.0325 ± 0.018	-0.0205 ± 0.0092	-0.0685 ± 0.015	-0.016 ± 0.0042	-0.0365 ± 0.005	-0.0865 ± 0.09	-0.0115 ± 0.016	-0.0075 ± 0.056	-0.0605 ± 0.11	-0.0265 ± 0.04	-0.185 ± 0.0071	-0.013 ± 0.048	0.053	0.0285 ± 0.019	0.01 ± 0.021	-0.0645 ± 0.088
lMphg:CD69	-0.054 ± 0.017	-0.0565 ± 0.023	0.002 ± 0.079	-0.124 ± 0.026	-0.256 ± 0.058	-0.045 ± 0.042	-0.0285 ± 0.023	0.0175 ± 0.053	-0.048 ± 0.0028	-0.0265 ± 0.025	-0.0255 ± 0.03	-0.169 ± 0.049	-0.23 ± 0.013	-0.06 ± 0.0042	-0.01	-0.0285 ± 0.018	-0.0185 ± 0.028	-0.0715 ± 0.0064
CASM3C:CD141/Thrombomodulin	0.0125 ± 0.011	-0.005 ± 0.0071	0.009 ± 0.013	-0.0085 ± 0.021	0.0575 ± 0.0035	0.027 ± 0.017	0.0185 ± 0.011	0.016 ± 0.0042	-0.014 ± 0.069	-0.0095 ± 0.0078	-0.0175 ± 0.033	0.0115 ± 0.09	-0.008 ± 0.1	0.0295 ± 0.016	0.008	0.014 ± 0.035	0.0205 ± 0.036	0.0465 ± 0.032
3C:CD142/Tissue Factor	0.0065 ± 0.029	0.0115 ± 0.0035	0.0155 ± 0.021	-0.0805 ± 0.026	-0.158 ± 0.0035	0.0325 ± 0.0078	0.04 ± 0.035	0.119 ± 0.0021	-0.007 ± 0.0028	-0.0145 ± 0.016	-0.024 ± 0.033	-0.0775 ± 0.022	-0.356 ± 0.057	-0.134 ± 0.04	-0.001	-0.0145 ± 0.0035	-0.0045 ± 0.0021	-0.036 ± 0.017
lMphg:CXCL8/IL-8	-0.009 ± 0.052	0.019 ± 0.035	0.0665 ± 0.029	0.0875 ± 0.061	0.161 ± 0.066	-0.008 ± 0.0028	-0.0315 ± 0.033	0.0385 ± 0.026	0.014 ± 0.02	0.0025 ± 0.0064	0.038 ± 0.014	-0.022 ± 0.027	0.048 ± 0.011	0.0035 ± 0.0092	0.018	0.0185 ± 0.026	0.099 ± 0.0057	0.222 ± 0.033
BE3C:MMP-9	-0.027 ± 0.0071	-0.016 ± 0.0042	-0.011 ± 0.024	-0.011 ± 0.0014	-0.04 ± 0.0028	-0.019 ± 0.0042	-0.0135 ± 0.012	0.007 ± 0.034	0.0015 ± 0.0035	-0.0185 ± 0.012	0 ± 0.021	0.0275 ± 0.013	-0.269 ± 0.0099	-0.0435 ± 0.018	-0.008	-0.0145 ± 0.0064	0.047 ± 0.0042	0.0375 ± 0.021
3C:CD62E/E-Selectin	-0.0165 ± 0.011	-0.0145 ± 0.022	0.001 ± 0.035	-0.007 ± 0.013	-0.0605 ± 0.03	-0.0115 ± 0.0078	0 ± 0.0085	-0.001 ± 0.024	-0.005	-0.019 ± 0.0099	-0.014 ± 0.018	-0.0365 ± 0.036	-0.019 ± 0.0014	-0.066 ± 0.0057	0.005	0.006 ± 0.011	-0.007 ± 0.017	0.0085 ± 0.046
BE3C:PAI-I	-0.0355 ± 0.0092	-0.018	0.0055 ± 0.025	-0.119 ± 0.016	-0.189 ± 0.0085	-0.036 ± 0.0028	-0.0065 ± 0.012	0.052 ± 0.04	-0.029 ± 0.031	-0.003 ± 0.018	-0.02 ± 0.011	-0.127 ± 0.023	-0.363 ± 0.035	0.0495 ± 0.025	0.015	0.014 ± 0.023	0.0045 ± 0.005	0.0255 ± 0.016
